Data taken from patent publication US20240360139A1, “BLOOD BRAIN BARRIER PENETRATING SELECTIVE INHIBITORS OF ROCK2 PROTEIN KINASES AND USES THEREOF” (GENOSCO Inc., priority 2023, published 2024).

Key:
[1] = target: T1, Recombinant ROCK1 (amino acids 1-477) (Homo sapiens, UniProt Q13464); test: ROCK inhibition assay, LANCE Ultra TR-FRET (ROCK1); type: biochemical; conditions: 1 mM of ATP
T1 construct: Recombinant ROCK1 (amino acids 1-477)
Description: (§1) Kinase IC50 was determined through an in vitro assay based on LANCE Ultra TR-FRET (Time-Resolved Fluorescence Resonance Energy Transfer) homogeneous technologies method 5 (Perkin Elmer). Recombinant ROCK1 (amino acids 1-477) and ROCK2 (amino acids 5-554) proteins were purchased from Carna Biosciences and SignalChem. Compound activities were measured by Envision and IC50s were calculated. The assays were performed in white LUMITRAC™ 200 96 well half-area microplates from Greiner Bio-One. The kinase reaction buffer consisted of 50 mM HEPES pH 7.5, 1 mM EGTA, 10 mM MgCl2, 2 mM DTT and 0.01% 10 Tween-20. Kinases were incubated with 50 nM (ULight-CREBtide) substrate in the presence of 1 mM (ROCK1) or 1 mM (ROCK2) of ATP. The kinase reaction was carried out for 1 hour before addition of a stopping buffer to a final of 10 mM EDTA and 0.6 nM of LANCE Ultra Europium anti-phospho-CREB (Ser133) antibody (PerkinElmer TRF0200) in LANCE detection buffer. All assay incubations were performed at room temperature, and the microplates were sealed with polyester film during that time. The reaction was incubated for 1 hour, and the signal was read in Envision in TR-FRET mode (excitation at 320 nm and emission at 615/665 nm).
(§2) As used herein, a way to describe potency of inhibitory activity (nM) is a value of inhibitory activity at 50% (IC50).

[2] = target: T2, Recombinant ROCK2 (amino acids 5-554) (Homo sapiens, UniProt O75116); test: ROCK inhibition assay, LANCE Ultra TR-FRET (ROCK2); type: biochemical; conditions: 1 mM of ATP
T2 construct: ROCK2 (amino acids 5-554)
T2 sequence (O75116 5-554): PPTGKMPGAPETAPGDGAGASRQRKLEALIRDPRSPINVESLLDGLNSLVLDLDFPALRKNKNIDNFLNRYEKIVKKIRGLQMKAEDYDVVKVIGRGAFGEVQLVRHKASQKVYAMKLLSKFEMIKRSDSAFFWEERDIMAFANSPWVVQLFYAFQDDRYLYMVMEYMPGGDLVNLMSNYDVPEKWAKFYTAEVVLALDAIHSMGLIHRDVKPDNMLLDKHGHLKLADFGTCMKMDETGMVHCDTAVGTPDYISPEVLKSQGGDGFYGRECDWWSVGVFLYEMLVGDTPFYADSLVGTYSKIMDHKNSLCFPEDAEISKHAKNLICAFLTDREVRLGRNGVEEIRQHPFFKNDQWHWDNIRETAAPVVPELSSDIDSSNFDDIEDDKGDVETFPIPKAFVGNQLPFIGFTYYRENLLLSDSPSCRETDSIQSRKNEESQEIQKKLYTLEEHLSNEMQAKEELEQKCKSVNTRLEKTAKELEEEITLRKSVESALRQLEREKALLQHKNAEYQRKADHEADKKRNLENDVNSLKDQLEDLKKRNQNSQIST
Description: as §1, §2

T1 sequence (Q13464 1-477): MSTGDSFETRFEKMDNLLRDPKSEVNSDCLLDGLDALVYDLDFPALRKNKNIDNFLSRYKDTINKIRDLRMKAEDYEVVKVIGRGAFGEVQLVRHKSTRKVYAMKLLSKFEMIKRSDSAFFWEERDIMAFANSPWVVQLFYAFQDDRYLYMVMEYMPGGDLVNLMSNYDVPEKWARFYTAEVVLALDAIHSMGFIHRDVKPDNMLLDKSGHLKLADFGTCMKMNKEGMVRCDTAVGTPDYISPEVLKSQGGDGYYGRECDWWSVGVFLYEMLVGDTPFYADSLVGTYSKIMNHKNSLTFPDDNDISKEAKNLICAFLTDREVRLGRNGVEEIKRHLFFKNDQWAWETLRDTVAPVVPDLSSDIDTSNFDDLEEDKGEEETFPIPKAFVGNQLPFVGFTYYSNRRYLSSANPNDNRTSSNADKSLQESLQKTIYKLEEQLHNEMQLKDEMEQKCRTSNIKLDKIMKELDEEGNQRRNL

IC50 [1] [µM]	IC50 [2] [µM]	Structure (SMILES)
0.201 to 0.5	< 0.02	CN(C)CCn1nc(C(=O)C2COc3ccc(F)cc3C2)c2ccc(-c3c[nH]nc3F)cc21 (centres unmarked) [Compound 5-55]
0.201 to 0.5	< 0.02	CN(C)CCn1cc(C(=O)[C@@H]2COc3ccc(F)cc3C2)c2ccc(-c3c[nH]nc3Cl)cc21 [Compound 5-21]
0.201 to 0.5	< 0.02	COc1n[nH]cc1-c1ccc2c(C(=O)[C@@H]3COc4ccc(Cl)cc4C3)nn(CCN(C)C)c2c1 [Compound 5-46]
> 0.501	0.201 to 0.5	Cc1n[nH]cc1-c1ccc2c(C(=O)C3COc4ccc(Cl)cc4C3)cn(CCN(C)C)c2c1 (centres unmarked) [Compound 5-1, (6-chlorochroman-3-yl)-[1-[2-(dimethylamino)ethyl]-6-(3-methyl-1H-pyrazol-4-yl)indol-3-yl]methanone]
0.201 to 0.5	< 0.02	CN(C)CCn1nc(C(=O)C2COc3ccc(F)cc3C2)c2ccc(-c3c[nH]nc3Cl)cc21 (centres unmarked) [Compound 5-52]
> 0.501	< 0.02	CN(C)CCn1nc(C(=O)C2COc3ccc(Cl)cc3C2)c2ccc(-c3c[nH]nc3F)cc21 (centres unmarked) [Compound 5-48]
0.201 to 0.5	< 0.02	COc1ccc2c(c1)C[C@H](C(=O)c1cn(C[C@H]3CCN3CCF)c3cc(-c4c[nH]nc4Cl)ccc13)CO2 [Compound 5-9]
> 0.501	> 0.501	COc1n[nH]cc1-c1ccc2c(C(=O)C3CCOc4ccc(F)cc4C3)nn(CCN(C)C)c2c1 (centres unmarked) [Compound 5-62]
> 0.501	0.021 to 0.2	CCN(CCF)CCn1cc(C(=O)[C@@H]2COc3ccc(OC)cc3C2)c2ccc(-c3c[nH]nc3Cl)cc21 [Compound 5-12]
0.201 to 0.5	< 0.02	COc1[nH]ncc1-c1ccc2c(C(=O)[C@@H]3COc4ccc(Cl)cc4C3)cn(CCN(C)C)c2c1 [Compound 5-30]
0.021 to 0.2	< 0.02	COc1ccc2c(c1)CC(C(=O)c1nn(CCN(C)C)c3cc(-c4c[nH]nc4OC)ccc13)CO2 (centres unmarked) [Compound 5-49]
0.201 to 0.5	0.021 to 0.2	COc1ccc2c(c1)CC(C(=O)c1cn(CCN(C)C)c3cc(-c4cn[nH]c4OC)ccc13)CO2 (centres unmarked) [Compound 5-41]
> 0.501	0.021 to 0.2	COc1n[nH]cc1-c1ccc2c(C(=O)[C@H]3COc4ccc(Cl)cc4C3)nn(CCN(C)C)c2c1 [Compound 5-47]
> 0.501	> 0.501	COc1ccc2c(c1)CC(C(=O)c1nn(CCN(C)C)c3cc(-c4c[nH]nc4OC)ccc13)CCO2 (centres unmarked) [Compound 5-64]
> 0.501	< 0.02	COc1[nH]ncc1-c1ccc2c(C(=O)C3COc4ccc(F)cc4C3)cn(CCN(C)C)c2c1 (centres unmarked) [Compound 5-37]

The next lines start with the compound.

Structure (SMILES)	IC50 [1] [µM]	IC50 [2] [µM]
NCCn1cc(C(=O)C2COc3ccc(F)cc3C2)c2ccc(-c3c[nH]nc3Cl)cc21 (centres unmarked) [Compound 2-4]	< 0.02	< 0.02
COc1[nH]ncc1-c1ccc2c(C(=O)C3COc4ccc(Cl)cc4C3)cn(CCN(C)C)c2n1 (centres unmarked) [Compound 1-8]	> 0.501	0.201 to 0.5
C[C@@H](N)Cn1cc(C(=O)C2COc3ccc(Cl)cc3C2)c2ccc(-c3c[nH]nc3Cl)cc21 (some centres unmarked) [Compound 2-5]	0.021 to 0.2	< 0.02
CCN(C)CCn1cc(C(=O)[C@@H]2COc3ccc(OC)cc3C2)c2ccc(-c3cn[nH]c3Cl)cc21 [Compound 3-26]	> 0.501	< 0.02
COc1n[nH]cc1-c1ccc2c(C(=O)C3COc4ccc(Cl)cc4C3)cn(CCN3CCC3)c2c1 (centres unmarked) [Compound 3-4, [1-[2-(azetidin-1-yl)ethyl]-6-(3-methoxy-1H-pyrazol-4-yl)indol-3-yl]-(6-chlorochroman-3-yl)methanone]	> 0.501	0.201 to 0.5
CCN(CC)CCn1cc(C(=O)C2COc3ccc(Cl)cc3C2)c2ccc(-c3cn[nH]c3Cl)cc21 (centres unmarked) [Compound 3-12]	> 0.501	0.021 to 0.2
COc1ccc2c(c1)CC(C(=O)c1cn(C[C@H]3CCN3C)c3cc(-c4cn[nH]c4Cl)ccc13)CO2 (some centres unmarked) [Compound 1-50]	> 0.501	< 0.02
COc1ccc2c(c1)CC(C(=O)c1cn(C[C@@H]3CCN3C)c3cc(-c4cn[nH]c4OC)ccc13)CO2 (some centres unmarked) [Compound 1-47]	> 0.501	< 0.02
COc1ccc2c(c1)CC(C(=O)c1cn(C[C@H]3CCN3C)c3cc(-c4cn[nH]c4OC)ccc13)CO2 (some centres unmarked) [Compound 1-49]	> 0.501	0.021 to 0.2
CC(N)Cn1cc(C(=O)C2COc3ccc(F)cc3C2)c2cnc(-c3c[nH]nc3Cl)cc21 (centres unmarked) [Compound 2-2]	0.021 to 0.2	< 0.02
CN(C)CCn1cc(C(=O)C2COc3ccc(Cl)cc3C2)c2cnc(-c3c[nH]nc3Cl)cc21 (centres unmarked) [Compound 1-11]	> 0.501	> 0.501
CN(C)CCn1cc(C(=O)C2COc3ccc(Cl)cc3C2)c2ccc(-c3cn[nH]c3F)nc21 (centres unmarked) [Compound 1-16]	> 0.501	> 0.501
C[C@H](Cn1cc(C(=O)C2COc3ccc(Cl)cc3C2)c2ccc(-c3cn[nH]c3Cl)cc21)N(C)C (some centres unmarked) [Compound 2-15]	0.201 to 0.5	< 0.02
COc1ccc2c(c1)CC(C(=O)c1cn(C[C@H]3CCN3)c3cc(-c4cn[nH]c4Cl)ccc13)CO2 (some centres unmarked) [Compound 1-35]	0.021 to 0.2	< 0.02
COc1ccc2c(c1)CC(C(=O)c1cn(C[C@H]3CCN3)c3cc(-c4cn[nH]c4OC)ccc13)CO2 (some centres unmarked) [Compound 1-42]	0.201 to 0.5	< 0.02
COc1[nH]ncc1-c1ccc2c(C(=O)C3COc4ccc(Cl)cc4C3)cn(CC3CN(C)C3)c2c1 (centres unmarked) [Compound 1-44]	> 0.501	< 0.02
CN(C)CCn1cc(C(=O)C2COc3ccc(Cl)cc3C2)c2cnc(-c3cn[nH]c3Cl)nc21 (centres unmarked) [Compound 1-33]	> 0.501	> 0.501
CNCCn1cc(C(=O)C2COc3ccc(Cl)cc3C2)c2ccc(-c3cn[nH]c3Cl)cc21 (centres unmarked) [Compound 3-9]	> 0.501	0.201 to 0.5
CCN(C)CCn1cc(C(=O)C2COc3ccc(OC)cc3C2)c2ccc(-c3cn[nH]c3Cl)cc21 (centres unmarked) [Compound 3-25]	0.201 to 0.5	< 0.02

Structure (SMILES)	IC50 [1] [µM]	IC50 [2] [µM]
CNCCn1cc(C(=O)C2COc3ccc(F)cc3C2)c2cnc(-c3c[nH]nc3Cl)cc21 (centres unmarked) [Compound 3-2]	> 0.501	0.021 to 0.2
COc1n[nH]cc1-c1ccc2c(C(=O)C3COc4ccc(Cl)cc4C3)cn(C[C@@H](C)N)c2c1 (some centres unmarked) [Compound 2-6]	0.021 to 0.2	< 0.02
COc1n[nH]cc1-c1ccc2c(C(=O)[C@@H]3COc4ccc(Cl)cc4C3)cn(CCCN(C)C)c2c1 [Compound 3-7]	0.201 to 0.5	0.021 to 0.2
CN(C)CCn1cc(C(=O)C2COc3ccc(Cl)cc3C2)c2cnc(-c3cn[nH]c3F)nc21 (centres unmarked) [Compound 1-34]	> 0.501	0.201 to 0.5
CCN(C)CCn1cc(C(=O)C2COc3ccc(OC)cc3C2)c2ccc(-c3cn[nH]c3F)cc21 (centres unmarked) [Compound 3-30]	0.201 to 0.5	0.021 to 0.2
COc1[nH]ncc1-c1ccc2c(C(=O)C3COc4ccc(Cl)cc4C3)cn(C[C@@H](C)N(C)C)c2c1 (some centres unmarked) [Compound 2-14]	0.201 to 0.5	< 0.02
CN(C)CCn1cc(C(=O)C2COc3ccc(Cl)cc3C2)c2ccc(-c3c[nH]nc3Cl)cc21 (centres unmarked) [Compound 1-17]	> 0.501	0.021 to 0.2
C[C@H](Cn1cc(C(=O)C2COc3ccc(Cl)cc3C2)c2ccc(-c3cn[nH]c3F)cc21)N(C)C (some centres unmarked) [Compound 2-16]	> 0.501	< 0.02
C[C@H](N)Cn1cc(C(=O)C2COc3ccc(Cl)cc3C2)c2ccc(-c3c[nH]nc3Cl)cc21 (some centres unmarked) [Compound 2-7]	< 0.02	< 0.02
COc1ccc2c(c1)CC(C(=O)c1cn(C[C@@H]3CCN3C)c3cc(-c4cn[nH]c4F)ccc13)CO2 (some centres unmarked) [Compound 1-48]	> 0.501	0.021 to 0.2
COc1ccc2c(c1)CC(C(=O)c1cn(CC3(N)CC3)c3cc(-c4cn[nH]c4F)ccc13)CO2 (centres unmarked) [Compound 4-6]	0.021 to 0.2	< 0.02
COc1n[nH]cc1-c1ccc2c(C(=O)C3COc4ccc(F)cc4C3)cn(CCCN(C)C)c2c1 (centres unmarked) [Compound 3-6]	> 0.501	0.021 to 0.2
COc1n[nH]cc1-c1ccc2c(C(=O)[C@H]3COc4ccc(Cl)cc4C3)cn(CCCN(C)C)c2c1 [Compound 3-8]	> 0.501	0.201 to 0.5
COc1[nH]ncc1-c1ccc2c(C(=O)C3COc4ccc(Cl)cc4C3)cn(CC3CCN3)c2c1 (centres unmarked) [Compound 1-32]	> 0.501	< 0.02
CCN(CC)CCn1cc(C(=O)C2COc3ccc(OC)cc3C2)c2ccc(-c3cn[nH]c3F)cc21 (centres unmarked) [Compound 3-22]	0.201 to 0.5	< 0.02
COc1ccc2c(c1)CC(C(=O)c1cn(CC3(N)CC3)c3cc(-c4cn[nH]c4Cl)ccc13)CO2 (centres unmarked) [Compound 4-3]	0.021 to 0.2	< 0.02
CCN(C)CCn1cc(C(=O)C2COc3ccc(Cl)cc3C2)c2ccc(-c3cn[nH]c3Cl)cc21 (centres unmarked) [Compound 3-10]	> 0.501	0.021 to 0.2
COc1[nH]ncc1-c1ccc2c(C(=O)C3COc4ccc(Cl)cc4C3)cn(C[C@H]3CCCN3C)c2c1 (some centres unmarked) [Compound 1-28]	> 0.501	> 0.501
